Experimental data taken from US20150366839A1, “Schisantherin A for the treatment of neurodegenerative diseases” (priority 2014, published 2015).

Columns and labels:
[1] = tested on: caspase-3; assay: Caspase-3 activity assay (EnzChek kit); assay type: cell-based, Human; settings: 60 μM 12 h, then 2 mM MPP+ 36 h
Protocol: Caspase-3 activity was detected using the EnzChek® Caspase-3 Assay Kit according to the manufacturer's protocol. In brief, the reaction mixture (total volume 100 μL) contained 50 μL of cell lysate and 50 μL of caspase-3 substrate (Z-DEVD-R110 substrate; the final concentration is […]) in assay buffer, and the assay was carried out in a 96-well plate. To account for non-specific hydrolysis of substrate, the samples were incubated at room temperature for approximately 30 minutes and measured the fluorescence (excitation/emission˜496/520 nm).
The inventors performed Western blot to measure the expression of active-form of caspase-3 and caspase-7 in SH-SY5Y cells. Cells were pretreated with 60 μM SchiA for 12 h and then treated with 2 mM MPP for another 36 h. Cells were lysed and examined by western blot. […] Caspase-3 activity was expressed as units per mg protein. ###p<0.005 versus control group; *p<0.05, **p<0.01 and *** p<0.005 versus MPP+ group.

[2] = tested on: SH-SY5Y cells; assay: MTT neuroprotection against 6-OHDA-induced cytotoxicity; assay type: cell-based, Human
Protocol: (§1) Human neuroblastoma SH-SY5Y cells were purchased from the American Type Culture Collection (ATCC, Manassas, Va., USA) and cultured in a humidified 5% (v/v) CO2 atmosphere in 37° C. in Dulbecco's Modified Eagle Medium (DMEM) (Life technologies, NY, USA) supplemented with 10% FBS, 1% penicillin (100 U/mL) and streptomycin (100 μg/mL). All experiments were carried out 48 h after the cells were seeded.
Cell viability was determined by 3-(4,5-dimethyl-2-thiazolyl) 2,5-diphenyl-2H-tetrazolium bromide (MTT) assay (Sigma-Aldrich, USA). SH-SY5Y cells were seeded in 96-well plates (1×10^4 cells/well) for 48 h. SH-SY5Y cells were pre-treated with different concentrations of the five lignans (i.e. Schizandrin A, Schizandrin B, SC, Schizandrol A and SchiA) for 12 h and the cell viability was checked by MTT assay. Otherwise, SH-SY5Y cells were pre-treated with different concentrations of the five lignans for 12 h and then exposed to 400 μM 6-OHDA for 4 h. Cells were incubated at 37° C. for 4 h in 0.5 mg/mL MTT solution (prepared in serum free DMEM medium). The medium was then removed, and 100 μL of DMSO was added to each well to dissolve the violet-formazan crystals. The absorbance at 570 nm with 655 nm as a reference wavelength was measured by a multi-label counter (Wallac VICTOR3TMV, Perkin Elmer, Netherlands). Cell viability was expressed as a percentage of the value of the cells without 6-OHDA treatment. The LC50 and EC50 were calculated by GraphPad Prism V5.0 (GraphPad Software, Inc., San Diego, Calif.).
To further study the neuroprotective activities of the five lignans against 6-OHDA-induced cytotoxicity, cells were treated with various concentrations (3, 6, 12, 25, 50 and 100 μM) of the tested compounds for 12 h before exposed to 400 μM 6-OHDA for 4 h.

[3] = tested on: SH-SY5Y cells; assay: MTT neuroprotection against MPP+-induced cell damage; assay type: cell-based
Protocol: as §1
In another study, SH-SY5Y cells were seeded in 96-well plates (1×10^4 cells/well) for 48 h. SH-SY5Y cells were pre-treated with different concentrations of the five lignans for 12 h and the cell viability was checked by MTT assay. SH-SY5Y cells were pre-treated with different concentrations of the five lignans for 12 h and then exposed to 2 mM MPP or vehicle for 36 h. Cells were incubated at 37° C. for 4 h in 0.5 mg/mL MTT solution (prepared in serum free DMEM medium). The medium was then discarded and 100 μL of DMSO was added to each well to dissolve the violet-formazan crystals. The absorbance at 570 nm with 655 nm as a reference wavelength was measured by a multi-label counter (Wallac VICTOR3TMV, Perkin Elmer, Netherlands). Cell viability was expressed as a percentage of the value of the cells without MPP treatment. The LC50 and EC50 were calculated by GraphPad Prism V5.0 (GraphPad Software, Inc., San Diego, Calif.).
To evaluate the cytotoxicity of five selected lignans of S. chinensis, SH-SY5Y cells were treated with various concentrations of the tested compounds for 12 h and the cell viability was measured using the MTT assay. […] To further study the neuroprotective activities of the five lignans in vitro, cells were treated with various concentrations of the tested compounds for 12 h before exposed to MPP^+. […] Values represent mean±S.D. ###P<0.005 versus control group; *p<0.05, **p<0.01 and *** p<0.005 versus MPP group. […] The therapeutic index of SchiA and SC were 14.9 and 8.8, respectively.
The inventors also investigated the contribution of the PI3K/Akt pathway in the neuroprotective effects of SchiA. The inventors measured phosphorylation-Akt (p-Akt) levels after pre-treated with 60 μM SchiA for 12 h and then exposed to 2 mM MPP for another 36 h. […] And MPP^+-induced down-regulation of Akt expressions was inhibited by SchiA treatment. […] To further validate whether the activation of PI3K/Akt signaling pathway, the inventors determined the blocking effect of PI3K/Akt inhibitor such as AKT inhibitor IV on the in vitro neuroprotective effect of SchiA. SH-SY5Y cells were pre-incubated with Akt inhibitor IV (2 μM) for 1 h and then treated with SchiA for 12 h. Drug-treated cells were further treated with 2 mM MPP for another 36 h, MTT assay was used to determinate cell viability.

Structure (SMILES): COc1cc2c(c(OC)c1OC)-c1c(cc3c(c1OC)OCO3)C[C@H](C)[C@](C)(O)[C@H]2OC(=O)c1ccccc1 [SchiA, Schisantherin A]
- MPP+-induced elevation of caspase-3 activity [1]: dramatically suppressed
- protection against 6-OHDA-induced damage (cell viability) ([2]; 3, 6, 12, 25, 50 and 100 μM for 12 h before 400 μM 6-OHDA 4 h): protected SH-SY5Y cells against 6-OHDA-induced damage in a dose-dependent manner
- EC50 ([2]; pre-treated 12 h, then 400 μM 6-OHDA 4 h): 8.1 µM
- EC50 ([3]; pre-treated 12 h, then 2 mM MPP+ 36 h): 8.1 µM
- protection against MPP+-induced cell damage (cell viability) ([3]; various concentrations 12 h before MPP+): protect against MPP^+-induced cell damage in a dose-dependent manner
